Laboratory results taken from US9802895B2, “Indole and benzimidazolecarboxamides as insecticides and acaricides” (BAYER CROPSCIENCE AKTIENGESELLSCHAFT, priority 2014, dated 2017).

How the values were obtained:
[1] = test system: larvae of the mustard beetle (Phaedon cochleariae); assay: Phaedon cochleariae spray test (PHAECO); assay type: in vivo; details: 100 g/ha, after 7 days
Procedure: Phaedon cochleariae—Spray Test (PHAECO)
(§1) Solvent: 78.0 parts by weight of acetone • • 1.5 parts by weight of dimethylformamide
(§2) Emulsifier: alkylaryl polyglycol ether
(§3) To produce a suitable active compound formulation, 1 part by weight of active compound is dissolved using the specified parts by weight of solvent and made up with water containing an emulsifier concentration of 1000 ppm until the desired concentration is attained. To produce further test concentrations, the preparation is diluted with emulsifier-containing water.
After 7 days, the efficacy in % is determined. 100% means that all the beetle larvae have been killed; 0% means that no beetle larvae have been killed.

[2] = test system: adult houseflies (Musca domestica); assay: Musca domestica test (MUSCDO); assay type: in vivo; details: 100 ppm, after 2 days
Procedure: Musca domestica Test (MUSCDO) Solvent: dimethyl sulphoxide To produce a suitable active compound formulation, 10 mg of active compound are mixed with 0.5 ml of dimethyl sulphoxide, and the concentrate is diluted with water to the desired concentration. Vessels containing a sponge treated with sugar solution and the active compound preparation of the desired concentration are populated with 10 adult houseflies (Musca domestica). After 2 days, the kill in % is determined. 100% means that all of the flies have been killed; 0% means that none of the flies have been killed.

[3] = test system: adult cat fleas (Ctenocephalides felis); assay: Ctenocephalides felis oral test (CTECFE); assay type: in vivo; details: 100 ppm, oral in cattle blood, after 2 days
Procedure: Ctenocephalides felis-Oral Test ([…]) Solvent: dimethyl sulphoxide To produce a suitable active compound formulation, 10 mg of active compound are mixed with 0.5 ml of dimethyl sulphoxide. Dilution with citrated cattle blood gives the desired concentration. About 20 unfed adult cat fleas (Ctenocephalides felis) are placed into a chamber which is closed at the top and bottom with gauze. A metal cylinder whose bottom end is closed with parafilm is placed onto the chamber. The cylinder contains the blood/active compound preparation, which can be imbibed by the fleas through the parafilm membrane. After 2 days, the kill in % is determined 100% means that all of the fleas have been killed; 0% means that none of the fleas have been killed.

[4] = test system: greenhouse red spider mite (Tetranychus urticae); assay: Tetranychus urticae spray test, OP-resistant (TETRUR); assay type: in vivo; details: for efficacy: 100 g/ha, spray, after 6 days
Procedure: Tetranychus urticae—Spray Test, OP-Resistant (TETRUR)
as §1, §2, §3
Discs of bean leaves (Phaseolus vulgaris) infested by all stages of the greenhouse red spider mite (Tetranychus urticae) are sprayed with an active compound formulation of the desired concentration.
After 6 days, the efficacy in % is determined 100% means that all the spider mites have been killed; 0% means that none of the spider mites have been killed.
Tetranychus urticae—Spray Test; OP-Resistant (TETRUR)
After the desired period of time, the efficacy in % is determined 100% means that all the spider mites have been killed; 0% means that none of the spider mites have been killed.

[5] = test system: engorged adult female cattle ticks (Boophilus microplus); assay: Boophilus microplus injection test (BOOPMI inj); assay type: in vivo; details: assessed after 7 days
Procedure: Boophilus microplus Injection Test (BOOPMI inj) Solvent: dimethyl sulphoxide To produce a suitable active compound formulation, 10 mg of active compound are mixed with 0.5 ml of solvent and the concentrate is diluted with solvent to the desired concentration. 1 μl of the active compound solution is injected into the abdomen of 5 engorged adult female cattle ticks (Boophilus microplus). The animals are transferred into dishes and kept in a climate-controlled room. The efficacy is assessed after 7 days by laying of fertile eggs. Eggs which are not visibly fertile are stored in a climate-controlled cabinet until the larvae hatch after about 42 days. An efficacy of 100% means that none of the ticks has laid any fertile eggs; 0% means that all the eggs are fertile.

[6] = test system: L2 larvae of the banded cucumber beetle (Diabrotica balteata); assay: Diabrotica balteata drench test (DIABBA); assay type: in vivo; details: 8 dat
Procedure: Diabrotica balteata—Drench Test (DIABBA) Solvent: 7 parts by weight of dimethylformamide Emulsifier: 2 parts by weight of alkylaryl polyglycol ether To produce a suitable active compound formulation, 1 part by weight of active compound is mixed with the specified amounts of solvent and emulsifier, and the concentrate is diluted with water to the desired concentration, it being necessary to include the volume of soil which is drenched in the calculation. It should be ensured that a concentration of 40 ppm of emulsifier in the soil is not exceeded. To produce further test concentrations, water is used for dilution. […] After one day, 25 L2 larvae of the banded cucumber beetle (Diabrotica balteata) are added. After 8 days, the efficacy in % is determined 100% means that all 5 plants have germinated and grown; 0% means that none of the plants has emerged.

[7] = test system: mixed thrips population (Frankliniella occidentalis); assay: Frankliniella occidentalis spray test (FRANOC); assay type: in vivo; details: 7 dat
Procedure: Frankliniella occidentalis—Spray Test (FRANOC) Solvent: 7 parts by weight of dimethylformamide Emulsifier: alkylaryl polyglycol ether To produce a suitable active compound formulation, 1 part by weight of active compound is dissolved using the specified parts by weight of solvent and made up with water containing an emulsifier concentration of 1000 ppm until the desired concentration is attained. To produce further test concentrations, the preparation is diluted with emulsifier-containing water. If the addition of ammonium salts or/and penetrants is required, these are each added in a concentration of 1000 ppm to the formulation solution. Bush bean plants (Phaseolus vulgaris) are sprayed with an active compound preparation of the desired concentration. After drying, the treated plants are infected with a mixed thrips population (Frankliniella occidentalis). After the desired period of time, the plant-protective efficacy in % is determined. 100% means that no damage is evident; 0% means that the damage to the treated plant corresponds to that of the untreated control.

[8] = test system: L1 larvae of the Australian sheep blowfly (Lucilia cuprina); assay: Lucilia cuprina test (LUCICU); assay type: in vivo; details: 100 ppm, after 2 days
Procedure: Lucilia cuprina Test (LUCICU) Solvent: dimethyl sulphoxide To produce a suitable active compound formulation, 10 mg of active compound are mixed with 0.5 ml of dimethyl sulphoxide, and the concentrate is diluted with water to the desired concentration. About 20 L1 larvae of the Australian sheep blowfly (Lucilia cuprina) are transferred into a test vessel containing minced horsemeat and the active compound preparation of the desired concentration. After 2 days, the kill in % is determined 100% means that all the larvae have been killed; 0% means that none of the larvae have been killed.

[9] = test system: caterpillars of the armyworm (Spodoptera frugiperda); assay: Spodoptera frugiperda spray test (SPODFR); assay type: in vivo; details: for efficacy: 100 g/ha, spray, after 7 days
Procedure: Spodoptera frugiperda—Spray Test (SPODFR) Solvent: 78.0 parts by weight of acetone • • 1.5 parts by weight of dimethylformamide Emulsifier: alkylaryl polyglycol ether To produce a suitable active compound formulation, 1 part by weight of active compound is dissolved using the specified parts by weight of solvent and made up with water containing an emulsifier concentration of 1000 ppm until the desired concentration is attained. To produce further test concentrations, the preparation is diluted with emulsifier-containing water. Leaf discs of maize (Zea mays) are sprayed with an active compound formulation of the desired concentration and, after drying, populated with caterpillars of the armyworm (Spodoptera frugiperda). After 7 days, the efficacy in % is determined 100% means that all the caterpillars have been killed; 0% means that no caterpillars have been killed. Spodoptera frugiperda—Spray Test (SPODFR) Solvent: 78.0 parts by weight of acetone • • 1.5 parts by weight of dimethylformamide Emulsifier: alkylaryl polyglycol ether To produce a suitable active compound formulation, 1 part by weight of active compound is dissolved using the specified parts by weight of solvent and made up with water containing an emulsifier concentration of 1000 ppm until the desired concentration is attained. To produce further test concentrations, the preparation is diluted with emulsifier-containing water. Leaf discs of maize (Zea mays) are sprayed with an active compound formulation of the desired concentration and, after drying, populated with caterpillars of the armyworm (Spodoptera frugiperda). After the desired period of time, the efficacy in % is determined. 100% means that all the caterpillars have been killed; 0% means that no caterpillars have been killed.

[10] = log P by HPLC (EEC directive 79/831 Annex V.A8); assay type: physicochemical; details: HPLC, reversed-phase column (C18), 43° C., acidic range pH 2.7
Procedure: a) The determination of the M^+ by LC-MS in the acidic range is effected at pH 2.7, acetonitrile (contains 0.1% formic acid) and water as eluents; linear gradient from 10% acetonitrile to 95% acetonitrile, instrument: Agilent 1100 LC system, Agilent MSD system, HTS PAL. The log P values reported in the tables and Preparation Examples above were determined in accordance with EEC directive 79/831 Annex V.A8 by HPLC (High Performance Liquid Chromatography) using a reversed-phase column (C18). Temperature 43° C. The calibration is effected with unbranched alkan-2-ones (having 3 to 16 carbon atoms), for which the logP values are known.

[11] = test system: green peach aphid (Myzus persicae); assay: Myzus persicae spray test; assay type: in vivo; details: 100 g/ha, after 6 days
Procedure: Myzus persicae—Spray Test Solvent: 78 parts by weight of acetone • • 1.5 parts by weight of dimethylformamide Emulsifier: alkylaryl polyglycol ether To produce a suitable appropriate active compound formulation, 1 part by weight of active compound is dissolved using the specified parts by weight of solvent and made up with water containing an emulsifier concentration of 1000 ppm until the desired concentration is attained. To produce further test concentrations, the preparation is diluted with emulsifier-containing water. Discs of Chinese cabbage leaves (Brassica pekinensis) infested by all stages of the green peach aphid (Myzus persicae) are sprayed with an active compound formulation of the desired concentration. After 6 days, the efficacy in % is determined. 100% means that all the aphids have been killed; 0% means that none of the aphids have been killed.

Structure (SMILES)	efficacy [1]	efficacy (kill in %) [2]	efficacy (kill in %) [3]	efficacy [4]	efficacy (laying of fertile eggs) [5]	efficacy (kill in %) [8]	efficacy [9]	log P [10]	efficacy [11]	also measured
Cn1c(C(=O)NC(c2ccc(Cl)c(C(F)(F)F)c2)C(F)(F)F)cc2cc(C(=O)NC3(C(N)=S)CC3)c(Cl)cc21 (stereo not drawn) [I-16]	100%	100%	100%	100%	100%	100%	100%	3.70	–	% efficacy ([6]; 4 ppm): 50%; % efficacy ([6]; 20 ppm): 100%; % efficacy (plant-protective) ([7]; 0.8 ppm): 90%; % efficacy (plant-protective) ([7]; 4 ppm): 90%
Cn1c(C(=O)NC(c2cc(Cl)c(Cl)c(Cl)c2)C(F)(F)F)cc2cc(C(=O)NC3(C(N)=S)CC3)c(Cl)cc21 (stereo not drawn) [I-20]	100%	100%	100%	100%	100%	100%	100%	4.07	90%	% efficacy ([9]; SPODFR, 0.8 g/ha, 7 dat): 100%; % efficacy ([9]; SPODFR, 4 g/ha, 7 dat): 100%
CCn1c(C(=O)NC(c2cc(Cl)c(Cl)c(F)c2F)C(F)(F)F)cc2cc(C(=O)NC3(C(N)=S)CC3)c(Cl)cc21 (stereo not drawn) [I-29]	100%	100%	100%	90%	100%	100%	100%	4.27	100%	–
CCn1c(C(=O)NC(c2ccc(F)c(C(F)(F)F)c2)C(F)F)cc2cc(C(=O)NC3(C(N)=S)CC3)c(Cl)cc21 (stereo not drawn) [I-32]	100%	–	100%	100%	100%	100%	100%	3.41	90%	–
CCn1c(C(=O)NC(c2cccc(C(F)(F)F)c2)C(F)(F)F)cc2cc(C(=O)NC3(C(N)=S)CC3)c(Cl)cc21 (stereo not drawn) [reference compound]	–	–	–	–	–	–	–	–	–	Emax at 4 g/ha ([4]; Tetranychus urticae, 144 h, TETRUR, 4 g/ha, 6 dat, read-out: % efficacy): 70%; Emax at 20 g/ha ([4]; Tetranychus urticae, 144 h, TETRUR, 20 g/ha, 6 dat, read-out: % efficacy): 100%; Emax at 4 ppm ([6]; Diabrotica balteata, soil, 192 h, 4 ppm, read-out: % efficacy): 70%; Emax at 20 ppm ([6]; Diabrotica balteata, soil, 192 h, 20 ppm, read-out: % efficacy): 60%; Emax at 0.8 ppm ([7]; Thrips, 168 h, 0.8 ppm, read-out: % efficacy (plant-protective)): 60%; Emax at 4 ppm ([7]; Thrips, 168 h, 4 ppm, read-out: % efficacy (plant-protective)): 98%; Emax at 0.8 g/ha ([9]; Spodoptera frugiperda, 168 h, SPODFR, 0.8 g/ha, 7 dat, read-out: % efficacy): 33%; % efficacy (mortality) at a single application rate at 4 g/ha ([9]; Spodoptera frugiperda, 168 h, SPODFR, 4 g/ha, 7 dat): 100%
